Laboratory results taken from the supplement of paper PMC7244745.
Where a name gives a salt, the structure may show the parent alone. ± gives the uncertainty stated by the source.

Key:
[1] = system: Klebsiella pneumoniae ATCC 13882; experiment: final pH-related absorbance (A557-A630) after 24 h (absorbance units); higher = more ureolysis; extreme values may be limits of the assay
Protocol: (§1)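 Klebsiella pneumoniae ATCC 13882 (start OD600 0.05) grown in M9U medium with 40 mM urea and phenol red plus inhibitor, in triplicate in 96-well plates. A557 and OD630 were read every 15 min for 24 h. Ureolysis was followed as the pH-related A557-A630: onset time, Gompertz-fit rate and final value. Growth was followed as OD630.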

[2] = system: Klebsiella pneumoniae ATCC 13882; experiment: rate of pH (A557-A630) increase, Gompertz fit (10^-4 s-1); higher = faster ureolysis; extreme values may be limits of the assay
Protocol: as §1

[3] = system: Klebsiella pneumoniae ATCC 13882; experiment: final OD630 (growth) after 24 h; higher = more bacterial growth; extreme values may be limits of the assay
Protocol: as §1

[4] = system: Klebsiella pneumoniae ATCC 13882; experiment: onset of ureolytic pH increase; higher = more delayed ureolysis (inhibition)
Protocol: as §1

`CC(=NO)C(C)=NO` [Dimethylglyoxime] was tested, and the “final pH-related absorbance” value ([1]; 0.03 mM) was 0.183 ± 0.0026, the “final pH-related absorbance” value ([1]; 0.3 mM) was 0.142 ± 0.032 and the “final pH-related absorbance” value ([1]; 3.01 mM) was 0.466 ± 0.023. The “rate of pH” value ([2]; 0.03 mM) was 2.093 ± 0.018, the “rate of pH” value ([2]; 0.3 mM) was 1.96 ± 0.3 and the “rate of pH” value ([2]; 3.01 mM) was 0.0904 ± 0.0046. For the same molecule, the “final OD630” value ([3]; 0.03 mM) was 0.443 ± 0.007, the “final OD630” value ([3]; 0.3 mM) was 0.377 ± 0.017 and the “final OD630” value ([3]; 3.01 mM) was 0. For the same molecule, the “onset of ureolytic pH increase” value ([4]; 0.03 mM) was 9.565 ± 0.012 h, the “onset of ureolytic pH increase” value ([4]; 0.3 mM) was 12.8 ± 0.6 h and the “onset of ureolytic pH increase” value ([4]; 3.01 mM) was 0 min.
With `C=C(CC)C(=O)c1ccc(OCC(=O)O)c(Cl)c1Cl` [Ethacrynic acid] the “final pH-related absorbance” value ([1]; 0.1 mM) was 0.139 ± 0.0023, the “final pH-related absorbance” value ([1]; 1 mM) was 0.128 ± 0.018 and the “final pH-related absorbance” value ([1]; 10 mM) was 0.294 ± 0.0059. For the same molecule, the “rate of pH” value ([2]; 0.1 mM) was 1.57 ± 0.073, the “rate of pH” value ([2]; 1 mM) was 1.49 ± 0.037 and the “rate of pH” value ([2]; 10 mM) was 0.033 ± 0.0006. For the same molecule, the “final OD630” value ([3]; 0.1 mM) was 0.437 ± 0.0002, the “final OD630” value ([3]; 1 mM) was 0.44 ± 0.0048 and the “final OD630” value ([3]; 10 mM) was 0. The “onset of ureolytic pH increase” value ([4]; 0.1 mM) was 11.62 ± 0.06 h, the “onset of ureolytic pH increase” value ([4]; 1 mM) was 12.6 ± 1.67 h and the “onset of ureolytic pH increase” value ([4]; 10 mM) was 0 min.
With `CC(O)(P(=O)(O)O)P(=O)(O)O` [Etidronic acid monohydrate] the “final pH-related absorbance” value ([1]; 0.1 mM) was 0.323 ± 0.0087, the “final pH-related absorbance” value ([1]; 1 mM) was 0.28 ± 0.005 and the “final pH-related absorbance” value ([1]; 10 mM) was 0. The “rate of pH” value ([2]; 0.1 mM) was 1.63 ± 0.035, the “rate of pH” value ([2]; 1 mM) was 1.597 ± 0.013 and the “rate of pH” value ([2]; 10 mM) was 0. The “final OD630” value ([3]; 0.1 mM) was 0.432 ± 0.0054, the “final OD630” value ([3]; 1 mM) was 0.443 ± 0.0026 and the “final OD630” value ([3]; 10 mM) was 0. For the same molecule, the “onset of ureolytic pH increase” value ([4]; 0.1 mM) was 11.23 ± 0.0383 h, the “onset of ureolytic pH increase” value ([4]; 1 mM) was 11.2 ± 0.0417 h and the “onset of ureolytic pH increase” value ([4]; 10 mM) was over 15 h.
`NC=O` [Formamide] was tested, and the “final pH-related absorbance” value ([1]; 0.1 mM) was 0.168 ± 0.021, the “final pH-related absorbance” value ([1]; 1 mM) was 0.172 ± 0.027 and the “final pH-related absorbance” value ([1]; 10 mM) was 0.165 ± 0.021. The “rate of pH” value ([2]; 0.1 mM) was 2.01 ± 0.1, the “rate of pH” value ([2]; 1 mM) was 2.24 ± 0.1 and the “rate of pH” value ([2]; 10 mM) was 2.188 ± 0.02. The “final OD630” value ([3]; 0.1 mM) was 0.513 ± 0.0092, the “final OD630” value ([3]; 1 mM) was 0.512 ± 0.0096 and the “final OD630” value ([3]; 10 mM) was 0.513 ± 0.008. For the same molecule, the “onset of ureolytic pH increase” value ([4]; 0.1 mM) was 9.17 ± 0.367 h, the “onset of ureolytic pH increase” value ([4]; 1 mM) was 9.33 ± 0.25 h and the “onset of ureolytic pH increase” value ([4]; 10 mM) was 9.53 ± 0.125 h.
`O=C(O)c1cc(O)c(O)c(O)c1` [Gallic acid monohydrate] was tested, and the “final pH-related absorbance” value ([1]; 0.056 mM) was 0.19 ± 0.0003, the “final pH-related absorbance” value ([1]; 0.56 mM) was 0.191 ± 0.028 and the “rate of pH” value ([2]; 0.056 mM) was 2.0688 ± 0.0018. For the same molecule, the “rate of pH” value ([2]; 0.56 mM) was 1.8 ± 0.028, the “final OD630” value ([3]; 0.056 mM) was 0.454 ± 0.007 and the “final OD630” value ([3]; 0.56 mM) was 0.45 ± 0.003. The “onset of ureolytic pH increase” value ([4]; 0.056 mM) was 9.382 ± 0.0617 h and the “onset of ureolytic pH increase” value ([4]; 0.56 mM) was 10.3 ± 0.3 h.
`N=C(N)N` [Guanidine hydrochloride] was tested, and the “final pH-related absorbance” value ([1]; 0.1 mM) was 0.249 ± 0.007, the “final pH-related absorbance” value ([1]; 1 mM) was 0.27 ± 0.011 and the “final pH-related absorbance” value ([1]; 10 mM) was 0.286 ± 0.009. For the same molecule, the “rate of pH” value ([2]; 0.1 mM) was 1.94 ± 0.086, the “rate of pH” value ([2]; 1 mM) was 2.02 ± 0.066 and the “rate of pH” value ([2]; 10 mM) was 2.03 ± 0.17. The “final OD630” value ([3]; 0.1 mM) was 0.498 ± 0.006, the “final OD630” value ([3]; 1 mM) was 0.505 ± 0.006 and the “final OD630” value ([3]; 10 mM) was 0.503 ± 0.004. For the same molecule, the “onset of ureolytic pH increase” value ([4]; 0.1 mM) was 7.22 ± 0.107 h, the “onset of ureolytic pH increase” value ([4]; 1 mM) was 7.08 ± 0.095 h and the “onset of ureolytic pH increase” value ([4]; 10 mM) was 7.26 ± 0.2 h.
With `Oc1ccc(O)cc1` [Hydroquinone] the “final pH-related absorbance” value ([1]; 0.1 mM) was 0.155 ± 0.0064, the “final pH-related absorbance” value ([1]; 1 mM) was 0.157 ± 0.0044 and the “rate of pH” value ([2]; 0.1 mM) was 1.78 ± 0.19. For the same molecule, the “rate of pH” value ([2]; 1 mM) was 1.58 ± 0.096, the “final OD630” value ([3]; 0.1 mM) was 0.408 ± 0.021 and the “final OD630” value ([3]; 1 mM) was 0.423 ± 0.038. The “onset of ureolytic pH increase” value ([4]; 0.1 mM) was 11.3 ± 0.118 h and the “onset of ureolytic pH increase” value ([4]; 1 mM) was 11.7 ± 0.667 h.
In the case of `NC(=O)NO` [Hydroxyurea], the “final pH-related absorbance” value ([1]; 0.1 mM) is reported as 0.258 ± 0.007, the “final pH-related absorbance” value ([1]; 1 mM) is reported as 0.198 ± 0.029 and the “final pH-related absorbance” value ([1]; 10 mM) is reported as 0. The “rate of pH” value ([2]; 0.1 mM) was 1.89 ± 0.32, the “rate of pH” value ([2]; 1 mM) was 1.01 ± 0.031 and the “rate of pH” value ([2]; 10 mM) was 0. The “final OD630” value ([3]; 0.1 mM) was 0.483 ± 0.006, the “final OD630” value ([3]; 1 mM) was 0.452 ± 0.031 and the “final OD630” value ([3]; 10 mM) was 0.262 ± 0.002. For the same molecule, the “onset of ureolytic pH increase” value ([4]; 0.1 mM) was 7.27 ± 0.108 h, the “onset of ureolytic pH increase” value ([4]; 1 mM) was 7.36 ± 0.417 h and the “onset of ureolytic pH increase” value ([4]; 10 mM) was over 15 h.
With `c1c[nH]cn1` [Imidazole] the “final pH-related absorbance” value ([1]; 0.1 mM) was 0.163 ± 0.0003, the “final pH-related absorbance” value ([1]; 1 mM) was 0.164 ± 0.0067 and the “final pH-related absorbance” value ([1]; 10 mM) was 0.169 ± 0.0015. For the same molecule, the “rate of pH” value ([2]; 0.1 mM) was 1.457 ± 0.0067, the “rate of pH” value ([2]; 1 mM) was 1.48 ± 0.046 and the “rate of pH” value ([2]; 10 mM) was 1.43 ± 0.029. For the same molecule, the “final OD630” value ([3]; 0.1 mM) was 0.423 ± 0.0002, the “final OD630” value ([3]; 1 mM) was 0.42 ± 0.0034 and the “final OD630” value ([3]; 10 mM) was 0.439 ± 0.0039. The “onset of ureolytic pH increase” value ([4]; 0.1 mM) was 9.38 ± 0.0583 h, the “onset of ureolytic pH increase” value ([4]; 1 mM) was 9.42 ± 0.118 h and the “onset of ureolytic pH increase” value ([4]; 10 mM) was 10.32 ± 0.0533 h.
In the case of `O=C(O)CNCC(=O)O` [Iminodiacetic acid], the “final pH-related absorbance” value ([1]; 0.008 mM) is reported as 0.184 ± 0.004, the “final pH-related absorbance” value ([1]; 0.08 mM) is reported as 0.211 ± 0.017 and the “final pH-related absorbance” value ([1]; 0.802 mM) is reported as 0.209 ± 0.007. The “rate of pH” value ([2]; 0.008 mM) was 2.086 ± 0.011, the “rate of pH” value ([2]; 0.08 mM) was 2.13 ± 0.052 and the “rate of pH” value ([2]; 0.802 mM) was 1.82 ± 0.045. The “final OD630” value ([3]; 0.008 mM) was 0.44 ± 0.003, the “final OD630” value ([3]; 0.08 mM) was 0.429 ± 0.003 and the “final OD630” value ([3]; 0.802 mM) was 0.373 ± 0.011. The “onset of ureolytic pH increase” value ([4]; 0.008 mM) was 9.425 ± 0.0533 h, the “onset of ureolytic pH increase” value ([4]; 0.08 mM) was 9.377 ± 0.025 h and the “onset of ureolytic pH increase” value ([4]; 0.802 mM) was 11.1 ± 0.317 h.
With `N=C(N)NCCC[C@H](N)C(=O)O` [L-arginine] the “final pH-related absorbance” value ([1]; 0.094 mM) was 0.23 ± 0.0075, the “final pH-related absorbance” value ([1]; 0.943 mM) was 0.238 ± 0.0024 and the “final pH-related absorbance” value ([1]; 9.43 mM) was 0.307 ± 0.0066. For the same molecule, the “rate of pH” value ([2]; 0.094 mM) was 1.72 ± 0.018, the “rate of pH” value ([2]; 0.943 mM) was 1.69 ± 0.018 and the “rate of pH” value ([2]; 9.43 mM) was 1.66 ± 0.021. For the same molecule, the “final OD630” value ([3]; 0.094 mM) was 0.472 ± 0.003, the “final OD630” value ([3]; 0.943 mM) was 0.52 ± 0.0037 and the “final OD630” value ([3]; 9.43 mM) was 0.519 ± 0.0064. For the same molecule, the “onset of ureolytic pH increase” value ([4]; 0.094 mM) was 10.601 ± 0.004 h, the “onset of ureolytic pH increase” value ([4]; 0.943 mM) was 9.309 ± 0.0733 h and the “onset of ureolytic pH increase” value ([4]; 9.43 mM) was 9.875 ± 0.0417 h.
